For 24 molecules, EC50 and melting point results are on record in patent US8114886B2, “Pyridylmethylsulfone derivative” (Daiichi Sankyo Company, Limited, priority 2005, dated 2012).

Structures are written as SMILES.

Data set [1] has as its system β-amyloid protein (Aβ) secreted by E35 cells (H4 cells with APP751 gene). Nature of the data set: Screening system using E35 cells for inhibition of production/secretion of β-amyloid protein (sandwich ELISA of Aβ in culture medium). The format is cell-based, human. As to conditions: Homo sapiens, 24 hours with compound, Aβ in culture supernatant by ELISA, read-out: Inhibitory Activity for Production of A(EC50). As for the experimental part:
The activity of the compound inhibiting β-amyloid protein production was measured on E35 cells prepared by introducing APP751 gene, a gene of a human wild type β-amyloid protein precursor protein, to human glioma cells (H4 cells), by quantifying the amount of β-amyloid protein (Aβ) secreted to the culture medium by means of a sandwich type Enzyme-Linked Immunosorbent Assay (ELISA) method.
That is, E35 cells inoculated on a 96-well plate were cultured in an incubator at 37° C. which was maintained at equilibrium with 5% carbon dioxide, using Dulbecco's Modified Eagle's Medium containing inactivated 10% fetal bovine serum as the culture medium. After 24 hours from the inoculation, a test compound dissolved in a DMSO solution was added. The DMSO solution of the test compound was prepared at a concentration of 2000 times of the final concentration, such that the DMSO concentration in the culture medium would be 0.05%. After culturing for another 24 hours, the culture supernatant was recovered, and this was added to a 96-well plate for ELISA onto which a monoclonal antibody against Aβ, 25-1, was solid-phased. The plate was incubated at 4° C. for 16 to 20 hours. The plate was washed with phosphate buffer solution (pH 7.4), and then a biotinylated monoclonal antibody against Aβ, MA32-40, was added thereto. The plate was left to stand at 4° C. for 2 hours. The plate was washed again with phosphate buffer solution, and then alkaline phosphatase-conjugated streptavidin was added to conjugate streptavidin to biotin. Subsequently, the plate was washed with phosphate buffer solution. To this, Blue Phos (Kirkegaard & Perry Laboratories, Inc.) was added. After incubating the plate for an appropriate time, the reaction was terminated with an acid, and the absorbance for each well was measured. The amount of Aβ contained in the culture supernatant was determined from a calibration curve which was produced separately, and the amount was compared with that of control cells to which the compound was not added. Thus, the concentration at which 50% of the Aβ production is inhibited (EC50 value) was calculated. In addition, the 25-1 antibody and MA32-40 antibody used in ELISA were mouse monoclonal antibodies derived from the hybridoma cell clone lines, which were each produced and selected according to a standard method using Aβ25-35 and Aβ1-8 as antigens, respectively, and which specifically recognize their respective antigens. […]
The scores indicate ++++ for the case where EC50 was 5 nM or less; +++ for the case where EC50 was 5 to 50 nM; ++ for the case where EC50 was 50 to 500 nM; and + for the case where EC50 was 500 nM to 5 μM.
Background: ELISA stands for enzyme-linked immunosorbent assay.

Turning to `COc1ccc(S(=O)(=O)C(c2cnc(C(=O)NCCO)cc2C)c2cc(F)ccc2F)cc1` (stereo not drawn) [Example 43, 5-[(2,5-Difluorophenyl)[(4-methoxyphenyl)sulfonyl]methyl]-N-(2-hydroxyethyl)-4-methylpyridine-2-carboxamide], the melting point (as a rule, the temperature, or range, at which the solid turns liquid) is 134 to 135 °C. The EC50 (commonly the concentration at which the effect is half-maximal) in data set [1] lay in the range of 5 to 50 nM.
Molecule `Cc1cc(C(=O)N2CCC(O)CC2)ncc1C(c1cc(F)ccc1F)S(=O)(=O)c1ccc(F)cc1` (stereo not drawn) [Example 76, 1-[[5-[(2,5-Difluorophenyl)[(4-fluorophenyl)sulfonyl]methyl]-4-methylpyridin-2-yl]carbonyl]piperidin-4-ol] yielded a melting point of 171 to 173 °C. Besides, the EC50 in data set [1] is 500 to 5000 nM.
The like results for `CON(C)C(=O)c1cc(C)c(C(c2cc(F)ccc2F)S(=O)(=O)c2ccc(F)cc2)cn1` (stereo not drawn) [Example 79, 5-[(2,5-Difluorophenyl) [(4-fluorophenyl)sulfonyl]methyl]-N-methoxy-N,4-dimethylpyridine-2-carboxamide] were, in that order, 156 to 158 °C and 50 to 500 nM.
The like results for `CONC(=O)c1cc(C)c(C(c2cc(F)ccc2F)S(=O)(=O)c2ccc(F)cc2)cn1` (stereo not drawn) [Example 78, 5-[(2,5-Difluorophenyl)[(4-fluorophenyl)sulfonyl]methyl]-N-methoxy-4-methylpyridine-2-carboxamide] were, in that order, 231 to 234 °C and 5 to 50 nM.
The like results for `Cc1cc(C(=O)NC(CO)CO)ncc1C(c1cc(F)ccc1F)S(=O)(=O)c1ccc(F)cc1` (stereo not drawn) [Example 75, 5-[(2,5-Difluorophenyl)[(4-fluorophenyl)sulfonyl]methyl]-N-[2-hydroxy-1-(hydroxymethyl)ethyl]-4-methylpyridine-2-carboxamide] were, in that order, 150 to 152 °C and ≤ 5 nM.
Turning to `Cc1cc(C(=O)N(C)C)ncc1C(c1cc(F)ccc1F)S(=O)(=O)c1ccc(F)cc1` (stereo not drawn) [Example 14, 5-[(2,5-Difluorophenyl)[(4-fluorophenyl)sulfonyl]methyl]-N,N,4-trimethylpyridine-2-carboxamide], the melting point fell in the range of 176 to 177 °C. Besides, in data set [1], the EC50 lay within 50 to 500 nM.
The matching figures for `Cc1cc(C(N)=O)ncc1C(c1c(F)ccc(F)c1F)S(=O)(=O)c1ccc(C(F)(F)F)nc1` (stereo not drawn) [Example 117, 4-Methyl-5-[[[6-(trifluoromethyl)pyridin-3-yl]sulfonyl](2,3,6-trifluorophenyl)methyl]pyridine-2-carboxamide]: 237 to 238 °C and ≤ 5 nM.
As to `CCN(C)C(=O)c1cc(C)c(C(c2cc(F)ccc2F)S(=O)(=O)c2ccc(F)cc2)cn1` (stereo not drawn) [Example 18, 5-[(2,5-Difluorophenyl)[(4-fluorophenyl)sulfonyl]methyl]-N-ethyl-N,4-dimethylpyridine-2-carboxamide], the melting point is 165 to 167 °C. The 50% effective concentration (EC50) in data set [1] fell in the range of 50 to 500 nM.
In the case of `CC(=O)OCNC(=O)c1cc(C)c(C(c2cc(F)ccc2F)S(=O)(=O)c2ccc(F)cc2)cn1` (stereo not drawn) [Example 86, [[[5-[(2,5-Difluorophenyl)(4-fluorophenylsulfonyl)methyl]-4-methylpyridin-2-yl]carbonyl]amino]methyl acetate], the melting point fell in the range of 111 to 113 °C.
`Cc1cc(C(=O)NCCCS(C)(=O)=O)ncc1C(c1cc(F)ccc1F)S(=O)(=O)c1ccc(F)cc1` (stereo not drawn) [Example 74, 5-[(2,5-Difluorophenyl)[(4-fluorophenyl)sulfonyl]methyl]-4-methyl-N-[3-(methylsulfonyl)propyl]pyridine-2-carboxamide] registered a melting point of 182 to 185 °C. For the same molecule, the concentration for a half-maximal effect (EC50) in data set [1] is ≤ 5 nM.
The matching figures for `CCNC(=O)c1cc(C)c(C(c2cc(F)ccc2F)S(=O)(=O)c2ccc(F)cc2)cn1` (stereo not drawn) [Example 16, 5-[(2,5-Difluorophenyl)[(4-fluorophenyl)sulfonyl]methyl]-N-ethyl-4-methylpyridine-2-carboxamide]: 191 to 193 °C and ≤ 5 nM.
The like results for `Cc1cc(C(=O)NCO)ncc1C(c1c(F)ccc(F)c1F)S(=O)(=O)c1ccc(OC(F)(F)F)cc1` (stereo not drawn) [Example 124, N-(hydroxymethyl)-4-methyl-5-[[[4-(trifluoromethoxy)phenyl]sulfonyl](2,3,6-trifluorophenyl)methyl]pyridine-2-carboxamide] were, in that order, 140 to 141 °C and 5 to 50 nM.
Consider `Cc1cc(C(=O)NCO)ncc1C(c1c(F)ccc(F)c1F)S(=O)(=O)c1ccc(F)c(F)c1` (stereo not drawn) [Example 122, 5-[[(3,4-Difluorophenyl)sulfonyl](2,3,6-trifluorophenyl)methyl]-N-(hydroxymethyl)-4-methylpyridine-2-carboxamide], for which the melting point was in the range of 119 to 120 °C.
Molecule `Cc1cc(C(N)=O)ncc1C(c1cc(F)ccc1F)S(=O)(=O)c1ccc(Cl)cc1` (stereo not drawn) [Example 9, 5-[[(4-Chlorophenyl)sulfonyl](2,5-difluorophenyl)methyl]-4-methylpyridine-2-carboxamide] returned a melting point of 241 to 242 °C. The EC50 in data set [1] was ≤ 5 nM.
For `Cc1cc(C(=O)NCS)ncc1C(c1cc(F)ccc1F)S(=O)(=O)c1ccc(F)cc1` (stereo not drawn) [Example 132, 5-[(2,5-Difluorophenyl)[(4-fluorophenyl)sulfonyl]methyl]-N-(mercaptomethyl)-4-methylpyridine-2-carboxamide], the melting point lay in the range of 190 to 193 °C.
In turn, `CCOC(=O)c1cc(C)c(C(c2cc(F)ccc2F)S(=O)(=O)c2ccc(F)cc2)cn1` (stereo not drawn) [Example 91, Diethyl 5-[(2,5-difluorophenyl)[(4-fluorophenyl)sulfonyl]methyl]-4-methylpyridine-2-carboxylic acid] showed a melting point of 151 to 153 °C.
Same read-out and setting: then `Cc1cc(C(=S)N(C)C)ncc1C(c1cc(F)ccc1F)S(=O)(=O)c1ccc(F)cc1` (stereo not drawn) [Example 92, 5-[(2,5-Difluorophenyl)[(4-fluorophenyl)sulfonyl]methyl]-N,N,4-trimethylpyridine-2-carbothioamide], with 161 to 164 °C; and `Cc1cc(C(=O)N(C)CO)ncc1C(c1cc(F)ccc1F)S(=O)(=O)c1ccc(F)cc1` (stereo not drawn) [Example 133, 5-[(2,5-Difluorophenyl)((4-fluorophenyl)sulfonyl)methyl]-N-(hydroxymethyl)-N,4-dimethylpyridine-2-carboxamide], with 184 to 186 °C; and `Cc1cc(C(=O)N2CC(O)C2)ncc1C(c1cc(F)ccc1F)S(=O)(=O)c1ccc(F)cc1` (stereo not drawn) [Example 88, 1-[[5-[(2,5-Difluorophenyl)[(4-fluorophenyl)sulfonyl]methyl]-4-methylpyridin-2-yl]carbonyl]azetidin-3-ol], with 219 to 221 °C.
Still for that read-out and setting: the value for `Cc1cc(C(=O)NCO)ncc1C(c1c(F)ccc(F)c1F)S(=O)(=O)c1ccc(C(F)F)nc1` (stereo not drawn) [Example 136, 5-[[[6-(Difluoromethyl)pyridin-3-yl]sulfonyl](2,3,6-trifluorophenyl)methyl]-N-(1-hydroxymethyl)-4-methylpyridine-2-carboxamide] was 181 to 183 °C; that for `Cc1cc(C(=O)NCO)ncc1C(c1c(F)ccc(F)c1F)S(=O)(=O)c1ccc2ccoc2c1` (stereo not drawn) [Example 127, 5-[(1-Benzofuran-6-ylsulfonyl)(2,3,6-trifluorophenyl)methyl]-N-(hydroxymethyl)-4-methylpyridine-2-carboxamide] was 185 to 186 °C (dec.); that for `Cc1cc(C(=O)NCCO)ncc1C(c1cc(F)ccc1F)S(=O)(=O)c1cc(F)cc(F)c1` (stereo not drawn) [Example 100, 5-[(2,5-Difluorophenyl)[(3,5-difluorophenyl)sulfonyl]methyl]-N-(2-hydroxyethyl)-4-methylpyridine-2-carboxamide] was 82 to 84 °C.
On the same count and under the same terms, the value for `Cc1cc(C(=O)NCOCc2cccnc2)ncc1C(c1cc(F)ccc1F)S(=O)(=O)c1ccc(F)cc1` (stereo not drawn) [Example 113, 5-[(2,5-Difluorophenyl) [(4-fluorophenyl)sulfonyl]methyl]-4-methyl-N-[(pyridin-3-ylmethoxy)methyl]pyridine-2-carboxamide] was 121 to 123 °C; that for `COc1ccc(S(=O)(=O)C(c2cnc(C(=O)O)cc2C)c2cc(F)ccc2F)cc1` (stereo not drawn) [Example 42, 5-[(2,5-Difluorophenyl)[(4-methoxyphenyl)sulfonyl]methyl]-4-methylpyridine-2-carboxylic acid] was 194 to 195 °C.
